ChEMBL document CHEMBL5375954, “Discovery and Evaluation of C6-Substituted Pyrazolopyrimidine-Based Bisphosphonate Inhibitors of the Human Geranylgeranyl Pyrophosphate Synthase and Evaluation of Their Antitumor Efficacy in Multiple Myeloma, Pancreatic Ductal Adenocarcinoma, and Colorectal Cancer” (J Med Chem, 2023)
The source made the active and inactive calls. The calls are words filed in the database; no cut-off is given here.

Columns and labels:
[1] = Cytotoxicity against Normal human bronchial epithelial cells assessed as inhibition of cell growth at 10 uM incubated for 72 hrs by MTS assay relative to control; type: toxicity, cell-based
[2] = Cytotoxicity against human IMR-90 cells assessed as inhibition of cell growth at 10 uM incubated for 72 hrs by MTS assay relative to control; type: toxicity, cell-based
[3] = Cytotoxicity against wild type mouse normal ductal organoid [N(10128)] at 1 uM incubated for 72 hrs by CellTiter-Glo luminescence based analysis; type: toxicity, tissue-based
MIA PaCa-2 [4] = assay: Induction of apoptosis in human MIA PaCa-2 cells assessed as early apoptotic cells at 1 uM incubated for 72 hrs by APC-Annexin-V/7-AAD staining based flow cytometry (reference value: 1.26%); type: functional
MIA PaCa-2 [5] = assay: Induction of apoptosis in human MIA PaCa-2 cells assessed as late apoptotic cells at 1 uM incubated for 72 hrs by APC-Annexin-V/7-AAD staining based flow cytometry (reference value: 0.29%); type: functional
MIA PaCa-2 [6] = assay: Induction of apoptosis in human MIA PaCa-2 cells assessed as necrotic cells at 1 uM incubated for 72 hrs by APC-Annexin-V/7-AAD staining based flow cytometry (reference value: 0.75%); type: functional
HCT-116 [7] = assay: Induction of apoptosis in human HCT-116 cells assessed as late apoptotic cells at 1 uM incubated for 72 hrs by APC-Annexin-V/7-AAD staining based flow cytometry (reference value: 0%); type: functional
MIA PaCa-2 [8] = assay: Induction of apoptosis in human MIA PaCa-2 cells at 1 uM incubated for 72 hrs by APC-Annexin-V/7-AAD staining based flow cytometry relative to control; type: functional
HCT-116 [9] = assay: Induction of apoptosis in human HCT-116 cells at 1 uM incubated for 72 hrs by APC-Annexin-V/7-AAD staining based flow cytometry relative to control; type: functional
HCT-116 [10] = assay: Induction of apoptosis in human HCT-116 cells assessed as early apoptotic cells at 1 uM incubated for 72 hrs in presence of geranylgeraniol by APC-Annexin-V/7-AAD staining based flow cytometry (reference value: 1.16%); type: functional
JJN-3 = assay: Antiproliferative activity against human JJN-3 cells harboring wild type KRAS at 0.1 to 10000 nM incubated for 72 hrs by MTS assay; type: functional, cell-based; conditions: dose 0.1-10000 nM
KMS-12-PE = assay: Antiproliferative activity against human KMS-12-PE cells harboring wild type KRAS at 0.1 to 10000 nM incubated for 72 hrs by MTS assay; type: functional, cell-based; conditions: dose 0.1-10000 nM
[11] = Metabolic stability in CD-1 mouse liver microsomes assessed as compound remaining incubated for 45 mins in presence of NADPH by LC-MS/MS analysis; type: ADME, Microsome; conditions: 0.75 h
[12] = Metabolic stability in CD-1 mouse liver microsomes assessed as compound remaining incubated for 45 mins in absence of NADPH by LC-MS/MS analysis; type: ADME, Microsome; conditions: 0.75 h
[13] = Metabolic stability in Sprague-Dawley rat liver microsomes assessed as compound remaining incubated for 45 mins in presence of NADPH by LC-MS/MS analysis; type: ADME, Microsome; conditions: 0.75 h
Cytochrome P450 3A4 = Cytochrome P450 3A4 (Homo sapiens, UniProt P08684); assay: Inhibition of CYP3A4 (unknown origin); type: ADME
Chain of Cytochrome P450 3A4 (P08684 whole entry): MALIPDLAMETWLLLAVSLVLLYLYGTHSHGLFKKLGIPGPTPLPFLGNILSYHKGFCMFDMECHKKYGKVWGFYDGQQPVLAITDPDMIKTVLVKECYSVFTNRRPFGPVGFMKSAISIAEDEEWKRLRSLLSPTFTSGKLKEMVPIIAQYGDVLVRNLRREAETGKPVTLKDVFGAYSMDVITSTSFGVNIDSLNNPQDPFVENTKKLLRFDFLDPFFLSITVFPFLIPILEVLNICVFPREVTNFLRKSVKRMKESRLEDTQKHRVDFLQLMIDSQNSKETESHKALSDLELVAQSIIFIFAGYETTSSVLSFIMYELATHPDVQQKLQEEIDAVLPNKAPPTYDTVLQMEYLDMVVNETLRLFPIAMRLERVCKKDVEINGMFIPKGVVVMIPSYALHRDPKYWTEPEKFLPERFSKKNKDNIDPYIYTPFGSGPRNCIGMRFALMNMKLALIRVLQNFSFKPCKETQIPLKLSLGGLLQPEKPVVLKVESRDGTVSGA

Cytochrome P450 2D6 = Cytochrome P450 2D6 (Homo sapiens, UniProt P10635); assay: Inhibition of CYP2D6 (unknown origin); type: ADME
Chain of Cytochrome P450 2D6 (P10635 whole entry): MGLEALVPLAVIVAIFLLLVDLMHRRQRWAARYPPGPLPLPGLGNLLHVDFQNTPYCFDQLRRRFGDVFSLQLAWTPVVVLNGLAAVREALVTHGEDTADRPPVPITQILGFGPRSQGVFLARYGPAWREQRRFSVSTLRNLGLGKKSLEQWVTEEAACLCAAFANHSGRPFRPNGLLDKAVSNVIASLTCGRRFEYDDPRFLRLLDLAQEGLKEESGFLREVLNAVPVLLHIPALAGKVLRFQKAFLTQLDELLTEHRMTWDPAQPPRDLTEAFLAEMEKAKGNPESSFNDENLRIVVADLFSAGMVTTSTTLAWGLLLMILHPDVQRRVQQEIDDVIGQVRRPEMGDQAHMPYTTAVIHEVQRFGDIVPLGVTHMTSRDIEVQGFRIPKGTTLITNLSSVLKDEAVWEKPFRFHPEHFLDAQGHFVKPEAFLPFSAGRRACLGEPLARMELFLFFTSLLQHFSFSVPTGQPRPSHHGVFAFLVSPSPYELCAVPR

[14] = Plasma clearance in Sprague-Dawley rat at 3 mg/kg, iv measured for 24 hrs by LC-MS/MS analysis; type: ADME, organism-based
[15] = MRT in Sprague-Dawley rat at 3 mg/kg, iv measured for 24 hrs by LC-MS/MS analysis; type: ADME, organism-based; conditions: in vivo
[16] = Toxicity in NSG mouse xenografted with human RPMI-8226 cells assessed as reduction in body weight at 3 mg/kg, ip administered 3 times a week for 26 days and measured daily; type: organism-based; conditions: in vivo, time 26 day
[17] = Toxicity in NSG mouse xenografted with human MIA PaCa-2 cells assessed as body weight gain at 3 mg/kg, ip administered 3 times a week for 26 days and measured daily; type: organism-based; conditions: in vivo, time 26 day
[18] = Toxicity in NSG mouse xenografted with human MIA PaCa-2 cells assessed as signs of distress at 3 mg/kg, ip administered 3 times a week for 26 days and measured daily; type: organism-based; conditions: in vivo, time 26 day
[19] = Toxicity in NSG mouse xenografted with human MIA PaCa-2 cells assessed as reduction in mobility at 3 mg/kg, ip administered 3 times a week for 26 days and measured daily; type: organism-based; conditions: in vivo, time 26 day
MIA PaCa-2 [20] = assay: Antitumor activity against human MIA PaCa-2 cells xenografted in NSG mouse assessed as difference in tumor volume at 3 mg/kg, ip administered 3 times a week for 26 days and measured 48 hrs post last dose; type: functional, organism-based; conditions: time 28.0 day
MIA PaCa-2 [21] = assay: Antitumor activity against human MIA PaCa-2 cells xenografted in NSG mouse assessed as improvement in animal survival rate at 3 mg/kg, ip administered 3 times a week for 26 days and measured 60 days post last dose; type: functional, organism-based; conditions: time 86.0 day
[22] = Hepatotoxicity in male NSG mouse xenografted with human RPMI-8226 cells assessed as eosinophilic degeneration at 3 mg/kg, ip administered 3 times a week for 26 days and measured 48 hrs post last dose by H and E staining based assay; type: toxicity, organism-based; conditions: in vivo, 672 h, time 28 day
[23] = Hepatotoxicity in female NSG mouse xenografted with human RPMI-8226 cells assessed as eosinophilic degeneration at 3 mg/kg, ip administered 3 times a week for 26 days and measured 48 hrs post last dose by H and E staining based assay; type: toxicity, organism-based; conditions: in vivo, 672 h, time 28 day
[24] = Hepatotoxicity in male NSG mouse xenografted with human RPMI-8226 cells assessed as foci of necrosis at 3 mg/kg, ip administered 3 times a week for 26 days and measured 48 hrs post last dose by H and E staining based assay; type: toxicity, organism-based; conditions: in vivo, 672 h, time 28 day
[25] = Hepatotoxicity in female NSG mouse xenografted with human RPMI-8226 cells assessed as single-cell necrosis at 3 mg/kg, ip administered 3 times a week for 26 days and measured 48 hrs post last dose by H and E staining based assay; type: toxicity, organism-based; conditions: in vivo, 672 h, time 28 day
[26] = Hepatotoxicity in female NSG mouse xenografted with human RPMI-8226 cells assessed as foci of necrosis at 3 mg/kg, ip administered 3 times a week for 26 days and measured 48 hrs post last dose by H and E staining based assay; type: toxicity, organism-based; conditions: in vivo, 672 h, time 28 day
[27] = Hepatotoxicity in female NSG mouse xenografted with human RPMI-8226 cells assessed as inflammatory infiltrates at 3 mg/kg, ip administered 3 times a week for 26 days and measured 48 hrs post last dose by H and E staining based assay; type: toxicity, organism-based; conditions: in vivo, 672 h, time 28 day
[28] = Hepatotoxicity in male NSG mouse xenografted with human RPMI-8226 cells assessed as foci of bile ductular/oval cell proliferation at 3 mg/kg, ip administered 3 times a week for 26 days and measured 48 hrs post last dose by H and E staining based assay; type: toxicity, organism-based, Bile duct; conditions: in vivo, 672 h, time 28 day
[29] = Hepatotoxicity in female NSG mouse xenografted with human RPMI-8226 cells assessed as vasculitis or perivasculitis at 3 mg/kg, ip administered 3 times a week for 26 days and measured 48 hrs post last dose by H and E staining based assay; type: toxicity, organism-based; conditions: in vivo, 672 h, time 28 day
[30] = Hepatotoxicity in female NSG mouse xenografted with human RPMI-8226 cells assessed as prominent nucleoli at 3 mg/kg, ip administered 3 times a week for 26 days and measured 48 hrs post last dose by H and E staining based assay; type: toxicity, organism-based; conditions: in vivo, 672 h, time 28 day

Cn1ncc2c(NC(P(=O)(O)O)P(=O)(O)O)nc(-c3cccc(C(=O)Nc4ccc(C(F)(F)F)cc4)c3)nc21
inhibition at 72 h, 10 µM [1]: 0% | inhibition at 72 h, 10 µM [2]: ~20% | Activity [3]: Non-Toxic | Activity (MIA PaCa-2 [4]): 13.5% | Activity (MIA PaCa-2 [5]): 41% | Activity (MIA PaCa-2 [6]): 13.4% | Activity (HCT-116 [7]): 18% | Activity (MIA PaCa-2 [8]): ~50% | Activity (HCT-116 [9]): ~50% | Activity (HCT-116 [10]): 1.54% | Activity (JJN-3): Active | Activity (KMS-12-PE): Active | Stability [11]: 103% | Stability [12]: 121% | Stability [13]: 89.7% | IC50 (Cytochrome P450 3A4): > 40 µM | IC50 (Cytochrome P450 2D6): > 40 µM | clearance [14]: 0.2 mL/min/kg | MRT [15]: 4.68 h | Activity [16]: Non-Toxic | Activity [17]: Toxic | Activity [18]: Non-Toxic | Activity [19]: Non-Toxic | Activity (MIA PaCa-2 [20]): Active | Activity (MIA PaCa-2 [21]): Active | Activity [22]: Non-Toxic | Activity [23]: Non-Toxic | Activity [24]: Non-Toxic | Activity [25]: Non-Toxic | Activity [26]: Non-Toxic | Activity [27]: Non-Toxic | Activity [28]: Non-Toxic | Activity [29]: Non-Toxic | Activity [30]: Non-Toxic
